Literature values in patent US20240166971A1, “CONTACT LENS TREATING SOLUTION” (Bausch + Lomb Ireland Limited, priority 2022, published 2024).

Tested on: Gram-positive bacteria
Conditions: known property

Question: With CCCCC(CC)COCC(O)CO (stereo not shown) [EHOPD, 3-[(2-ethylhexyl)oxy]-1,2-propanediol] as the compound, how does the antimicrobial activity read?
Answer: exhibit antimicrobial activity
